Measurements reported in US12213992B2, “Iron containing composition and use thereof” (RENAPHARMA AB, priority 2018, dated 2025).

Assays:
[1] = Non-heme iron levels in liver; type: in vivo, CD1 mice; settings: anaemic mice, 20 mM Fe, 100 μL, 10 days
Description: (§1) After the last dose, the mice were provided with water ad libitum for 18 hours before sacrifice and collection of tissues. Tissues were stored at −70° C. until subjection to various toxicological investigations. […] Tests were made with respect to the following parameters: • 1. Lipid peroxidation (MDA measurement) • 2. GSH levels • 3. Catalase levels • 4. Non-heme iron levels • 5. Plasma ferritin levels Methodology
Non-heme iron was assayed according to the method of Foy et al. (Analytical Biochem. 1967; 18:559-563) as modified by Simpson & Peters (Br J Nutr. 1990; 63:79-89). Liver tissue was washed in ice-cold PBS, weighted (70 mg), and homogenized (1:5 w:v) in 0.15M NaCl-HEPES buffer (pH 7.4) with a glass Dounce homogenizer. 100 μl of the resulted extracted was boiled with 200 μl of TCA-sodium pyrophosphate and boil for 10 min, centrifuged at 10,000 RPM and collected the supernatant, the boiled extraction and centrifugation was repeated twice. From the total supernatant collection, 200 μL was mixed with 100 μL 4 of 0.23M ascorbic acid, 80 µL of 10 mM ferrozine and 420 μL of 2.0 M sodium-buffer acetate (pH 4.8). All samples were measured at 562 nm against the blank and compare with standard values.

ferritin = test: Plasma ferritin levels (mouse ELISA kit); type: in vivo, CD1 mice; settings: anaemic mice, 20 mM Fe, 100 μL, 10 days
Description: as §1
In this assay, the ferritin present in plasma samples reacts with the anti-Ferritin antibodies which have been adsorbed to the surface of polystyrene microliter wells. The assay was performed with a kit provided by Abcam company (Catalogue number, ab157713 Ferritin, mouse ELISA kit). The plasma samples were diluted 1:40 with the assay diluent provided in the kit. The amount of enzyme bound in the complex was measured by the addition of a chromo-genic substrate, 3,3′,5,5′-tetramethylbenzidine (TMB). The colorimetric reaction was measured at 450 nm in a plate reader. The quantity of ferritin in the test sample was interpolated from the standard curve with known concentrations of ferritin.

malondialdehyde (MDA) = test: Toxicity study: lipid peroxidation (MDA measurement); type: in vivo, CD1 mice; settings: anaemic mice, 20 mM Fe, 100 μL, 10 days; ANOVA one-way test
Description: as §1
(§2) The collection of the duodenum was achieved by taking the first 5 cm after the pylorus. The section was opened transversally, and the mucosa was removed using a glass slide.
Lipid peroxidation was measured by the detection of the endpoint product malondialdehyde (MDA), using the MDA microplate assay kit from Cohesion Biosciences (catalog number CAK1011). Liver tissue (70 mg) or duodenal mucosa (20 mg) were weighed and homogenized in assay buffer according with instructions of the kit manufacturer. All the samples were kept in ice during the assay. The dye reagent (Thiobarbituric acid) was brought at room temperature 30 min before the assay performance. […] The protein concentration of the extracts was analysed with the Bradford assay protocol and the MDA values were normalized against protein content.

anaemic mice = test: Haemoglobin levels in anaemic mice after treatment with oral iron (haemoglobin repletion study); type: in vivo, CD1 mice; settings: 10 days of gavage (Fe; 21 mM, 100 μl)
Text: The procedure for this study was adopted from well established techniques (Kajarabille et al, Brit. J. Nutrition, 117 (2017) 767-774) (FIG. 8). There was a change of haemoglobin levels between the anaemic (12.8±2.4 g/dL) and normal animals (19.55±2.4 g/dL) (FIG. 9).
Male CD1 mice (3 weeks of age) were made Fe deficient by feeding a low-iron diet of 3-mg Fe/Kg diet based on the modified AIN-76A purified rodent diet (TD.80396; Harlan Teklad) for 3 weeks (i.e., until they were 6 weeks of age). Another group of mice were placed on a normal iron-sufficient diet (48-mg Fe/Kg diet) (TD.80394; Harlan Teklad) to serve as control. The diets were of identical composition except that the iron-sufficient diet contained iron added as ferric citrate. After this, blood was withdrawn from the tails to determine the initial Hb concentrations of the mice. The Fe-deficient mice were then divided into the treatment groups based on similar Hb concentrations. […] After the 10 days, the mice were weighed, anaesthetized, and blood samples were taken for Hb, serum iron, and serum ferritin determinations. The mice were then killed by anaesthesia followed by neck dislocation, and the spleen, duodenum, kidney, and liver samples were excised, snap frozen in liquid nitrogen, and stored at −70° C. until further analysis.

catalase = test: Toxicity study: catalase levels; type: in vivo, CD1 mice; settings: anaemic mice, 20 mM Fe, 100 μL, 10 days; ANOVA one-way test
Description: as §1, §2
The activity of catalase enzyme was detected by using a Catalase Kit (Arbor assay company, Catalogue number K033-H1). Mice tissues were rinsed in PBS to take out the excess of blood and weighed (100 mg of liver or 20 mg duodenal mucosa). The procedure of sample preparation and assay was performed according to manufacturing instructions. The tissue samples were homogenized in ice-cold assay medium with a glass homogenizer, centrifuged at 10,000×g for 15 min at 4 degrees. The supernatant was collected to continue with the assay. A standard with catalase-hydrogen peroxide enzyme was measured within 30 min after reconstitution. The produced colour reaction was read at 450 nm using a plate reader.

reduced GSH = test: Toxicity study: reduced GSH levels (ELISA); type: in vivo, CD1 mice; settings: anaemic mice, 20 mM Fe, 100 μL, 10 days
Description: as §1, §2
The assay was performed according to manufacturer's instructions.

[2] = Tissue distribution of 59Fe; type: in vivo, mouse; settings: iron deficient mice, 4 hours after oral gavage, compared with the other iron source
Description: Anaemic mice were generated using the method of Latunde-Dada et al, J. Nutr. 144 (2014) 1896-902. Mice (3 weeks old) were split into 4 groups (n=6), two groups were fed with normal iron diet (48 mg iron/Kg) and the other two with iron deficient diet (3 mg iron/kg) for 6 weeks. Before the experiment haemoglobin levels were measured to confirm the differences between the normal group and the iron deficient groups. The day before the treatment with ^59Fe labelled iron, all the mice were deprived of food overnight with water ad libitum. Normal (non anaemic) and iron deficient (anaemic) mice were gavaged with either 100 μl of the formulation of Example 4, or with ^59FeSO4-ascorbic acid (1:1) ([Fe]=21 mM). Four hours after the oral gavage the mice were sacrificed and tissues collected.
The tissues from the ^59Fe uptake study were used for an investigation of iron distribution (FIGS. 4-7). In the normal animals the majority of the iron is in the “carcase” (probably in blood and lymph).

Structure (SMILES): O=S(=O)([O-])[O-].[Fe+2] [FeSO4]
- non-heme iron levels in liver, Mean [1]: 0.3637 nmol/mg
- plasma ferritin levels (ferritin): lower than that of normal mice
- concentration of malondialdehyde (MDA) in duodenal mucosa (malondialdehyde (MDA)): no statistical differences between the groups
- concentration of malondialdehyde (MDA) in liver (malondialdehyde (MDA)): no statistical differences between the groups
- haemoglobin levels (anaemic mice): increased the haemoglobin levels in anaemic mice to those of normal mice
- catalase activity in duodenal mucosa (catalase): no statistical differences between the groups
- catalase activity in liver (catalase): no statistical differences between the groups
- concentration of reduced GSH in liver (reduced GSH; ANOVA one-way test): no statistical differences between the groups
- concentration of reduced GSH in duodenal mucosa (reduced GSH; P≤0.05, ANOVA one-way test): higher levels of GSH in duodenum in comparison with the untreated group
- Fe distribution in the liver [2]: greater distribution of Fe in the liver
